“And” between values parts separate entries of the source, which are not always exact repeats. Equal entries are not always repeated.
Columns and labels:
[1] = tested on: normal rats on normal sodium diet; test: Micropuncture (glomerular hemodynamics) in normal rats on normal sodium diet; type: in vivo, Sprague-Dawley rats
Procedure: (§1) Experimental Design: All animal procedures were approved by the Animal Care Committee. Male 300-350 g Sprague-Dawley rats were used in all experiments.
(§2) Hyperuricemia in normal rats on normal sodium diet: To produce hyperuricemia, rats were administered oxonic acid (OA) (Sigma, St Louis Mo., USA) 750 mg/kg body weight by gastric gavage. To prevent the rise of serum uric acid induced by OA, allopurinol (AP) (Sigma, St Louis Mo., USA) was administered in drinking water (150 mg/L). We studied the following groups: Control (n=8); OA (n=7) and OA plus allopurinol (n=9). Systolic blood pressure and serum uric acid were measured at baseline and after 30-33 days of follow-up. Micropuncture studies were performed at 5 weeks.
(§3) Micropuncture: Animals were anesthetized with pentobarbital sodium (30 mg/kg ip) and placed on a thermoregulated table to maintain body temperature at 37° C. Trachea, jugular veins, femoral arteries, and the left ureter were catheterized with polyethylene tubing (PE-240, PE-50, and PE-10). The left kidney was exposed, placed in a Lucite holder, sealed with agar, and covered with Ringer's solution. Mean arterial pressure (MAP) was monitored with a pressure transducer (Model p23 db; Gould, San Juan, PR) and recorded on a polygraph (Grass Instruments, Quincy, Mass., USA). Blood samples were taken periodically and replaced with blood from a donor rat. Rats were maintained under euvolemic conditions by infusion of 10 ml/kg of body weight of isotonic rat plasma during surgery, followed by an infusion of 25% polyfructosan, at 2.2 ml/h (Inutest, Laevosan-Gesellschaft, Linz, Austria). After 60 min, five to six 3-min collection samples of proximal tubular fluid were obtained to determine flow rate and polyfructosan concentration. Intratubular pressure under free-flow and stop-flow conditions and peritubular capillary pressure were measured in other proximal tubules with a servo-null device (Servo Nulling Pressure System; Instrumentation for Physiology and Medicine, San Diego, Calif., USA). Polyfructosan was measured in plasma samples. Glomerular colloid osmotic pressure was estimated in protein from blood of the femoral artery (Ca) and surface efferent arterioles (Ce). Polyfructosan concentrations were determined by the technique of Davidson and Sackner (Davidson W D, Sackner Mass.: Simplification of the Antrhone Method for the Determination of Inulin in Clearance Studies. J. Lab Clin. Med. 62:351-356, 1963). The volume of fluid collected from individual proximal tubules was estimated from the length of the fluid column in a constant bore capillary tube of known internal diameter. Concentration of tubular polyfructosan was measured by the method of Vurek and Pegram (Vurek G G, Pegram S E: Fluorometric method for the determination of nanogram quantities of inulin. Ann. Biochem 16:409-419, 1966). Protein concentration in afferent and efferent samples was determined according to the method of Viets et al. (Viets J W, Deen W M, Troy J L, Brenner B M: Determination of serum protein concentration in nanoliter blood samples using fluorescamine or 9-phthalaldehyde. Anal. Biochem 88:513-521, 1978). MAP, GFR, single-nephron GFR (SNGFR), glomerular capillary hydrostatic pressure (Pgc), single-nephron plasma flow (QA), afferent (RA) and efferent (RE) resistances, and Kf, were calculated according to equations given elsewhere (Baylis C, Deen W M, Myers B D, Brenner B M: Effects of some vasodilator drugs on transcapillary fluid exchange in renal cortex. Am. J. Physiol 230:1148-1158, 1976).
(§4) Statistical analysis. Values are expressed as mean±standard error (SE). Differences between groups were evaluated by ANOVA with appropriate correction for multiple comparisons (Bonferroni). The relation between variables was assessed by correlation analysis.

Male Sprague-Dawley rats = test: Hyperuricemia and serum nitrites/nitrates (NOx) in rats, Example 2; type: in vivo; details: for serum uric acid: OA 750 mg/kg/day gavage, AP 150 mg/L drinking water; for Serum nitrites and nitrates (NOx): chemiluminescence
Procedure: Male Sprague-Dawley rats were housed in standard conditions and fed normal diets. We induced hyperuricemia with an uricase inhibitor, oxonic acid (OA; 750 mg/kg/day), by gavage, with control rats receiving vehicle. Allopurinol (AP) was used to block hyperuricemia by placing AP in the drinking water (150 mg/L). Rats were divided into four groups: (1) Control, (2) AP only, (3) OA only, and (4) OA+AP. Systolic blood pressure was measured using a tail-cuff sphygmomanometer. The amount of drinking water consumed and changes in body weight were noted. Rats were sacrificed at one and seven days. Serum was analyzed for uric acid concentration and nitrites/nitrates (NOx) by chemiluminescence method. (Prabhakar SS: Inhibition of mesangial iNOS by reduced extracellular pH is associated with uncoupling of NADPH oxidation. Kidney Int 61:2015-2024, 2002). Statistical analysis between subgroups was performed using ANOVA.

[2] = tested on: remnant kidney rats (5/6 nephrectomy); test: Micropuncture (glomerular hemodynamics) in remnant kidney rats; type: in vivo, Sprague-Dawley rats; parameters: SNGFR lower than RK control group / glomerular plasma flow lower than RK control group / Kf lower than RK control group / afferent resistance higher compared to RK control / efferent resistance higher compared to RK control: concentration or dose not given beside the values
Procedure: as §1
(§5) Hyperuricemia in remnant kidney rats on normal sodium diet: Under light anesthesia with ether, 5/6 nephrectomy was performed by removal of the right kidney and selective ligation of 2-3 branches of left renal artery. To induce hyperuricemia rats were given OA (750 mg/kg) by gastric gavage starting the day after the renal ablation. To prevent hyperuricemia AP was administered in the drinking water (150 mg/L). The following groups were studied: 5/6 Nx (n=10); 5/6 Nx+OA (n=12) and 5/6 Nx+OA+AP (n=13). Systolic blood pressure, proteinuria and serum uric acid were measured at baseline and after 25-28 days of follow-up. Micropuncture studies were performed at 4 weeks.
as §3, §4

[3] = tested on: remnant kidney rats (5/6 nephrectomy); test: Renal histology in remnant kidney rats; type: in vivo, Sprague-Dawley rats; details: mean±SE
Procedure: as §5
(§6) Renal Histology: After the micropuncture study kidneys and remnant kidneys were washed by perfusion with PBS and then fixed with 4% paraformaldehyde. Renal biopsies were embedded in paraffin. Four μm sections of fixed tissue were stained with periodic acid Schiff (PAS) reagent. Arteriolar morphology was assessed by indirect peroxidase immunostaining for alpha-smooth muscle actin (DAIO Corp. Carpinteria, Calif., USA). In addition in remnant kidney rats glomerulosclerosis and fibrosis was assessed with Masson's trichrome stain and tubulointerstitial lymphocytes were assessed by indirect immunoperoxidase immunostaining for anti-CD-5.
Quantification of morphology: Quantifications were performed blinded. Arteriolopathy of afferent arterioles was evaluated as previously described (Sanchez-Lozada L G, Tapia E, Avila-Casado C, Soto V, Franco M, Santamaria J, Nakagawa T, Rodriguez-Iturbe B, Johnson R J, Herrera-Acosta J: Mild hyperuricemia induces glomerular hypertension in normal rats. Am. J. Physiol Renal Physiol 283:F1105-F1110, 2002). In brief, only vessels adjacent to glomeruli were selected. For each arteriole, the outline of the vessel and its internal lumen (excluding the endothelium) was generated using computer analysis to calculate the total medial area (outline-inline), in 10 arterioles per biopsy. The media/lumen ratio was calculated by the outline/inline relationship.
Glomerulosclerosis was evaluated in Masson's trichrome stained sections. The degree of sclerosis was scored as follows: in each biopsy the numbers of glomeruli with segmental, mesangial and global sclerosis as well as normal glomerular tufts were assessed. The resulting index in each animal was expressed as the percent of sclerosed glomeruli.
Tubulointerstitial fibrosis analysis was performed by a pathologist unaware of the origin of each kidney section. Evaluation was performed using slides stained with Masson's trichrome. Five noncrossed fields ([…], enlarged ×40) per biopsy were analyzed, using light microscopy (Olympus B-51. Olympus American, Melville, N.Y.) and captured with a digital video camera (CoolSnap Pro, Media Cybernetics Silver Spring, Md.). Each picture was processed on a computer and analyzed using Image-Pro and Photoshop 7 (Adobe Systems, SanJose, Calif.). Using the capabilities of color recognition by this software, a blue color was selected for positive areas. After selection, these areas were quantified (pixel unit) using the histogram function of the software. For each field, the number of positive areas was expressed as a fraction of the tubulointerstitial area (positive areas divided by the overall field area). Finally, for each biopsy, the mean fractional amount of positive areas was obtained by averaging the values obtained from 5 fields examined. […]

[4] = tested on: remnant kidney rats (5/6 nephrectomy); test: Hyperuricemia in remnant kidney rats: serum uric acid, systolic blood pressure, proteinuria, body weight; type: in vivo, Sprague-Dawley rats
Procedure: as §1, §5
(§7) Evaluation: In all studies, systolic blood pressure (SBP) was measured by tail cuff sphyngomanometer using an automated system (Narco Biosystems, Houston Tex., USA). All animals were preconditioned for blood pressure measurements 1 week before each experiment. Proteinuria was determined by turbidimetry by the method of trichloroacetic acid (Henry R J, Sobel Ch, Segalove M: Turbidimetric determination of proteins with sulfosalicylic and trichloroacetic acids. Proc Soc Exp Biol Med 92:748-751, 1956). Serum uric acid was measured by colorimetric phosphotungstic acid method using a commercial kit (Wiener Lab, Argentina).
as §4

[5] = tested on: normal rats on normal sodium diet; test: Hyperuricemia in normal rats on normal sodium diet: serum uric acid, systolic blood pressure, body weight; type: in vivo, Sprague-Dawley rats
Procedure: as §1, §2, §7, §4

[6] = tested on: normal rats on normal sodium diet; test: Renal histology, afferent arteriole morphology in normal rats; type: in vivo, Sprague-Dawley rats
Procedure: as §2, §6
Quantification of morphology: Quantifications were performed blinded. […] The media/lumen ratio was calculated by the outline/inline relationship.

[7] = micropuncture at 4 weeks, mean±SE
[8] = micropuncture at 5 weeks, mean±SE

`Oc1ncnc2[nH]ncc12` [AP, allopurinol] was tested, and the “effect on glomerular hemodynamic alterations of hyperuricemia” value ([1]; concomitant with oxonic acid) was “prevented these alterations”, the “change in NOx concentration” value (Male Sprague-Dawley rats; rats treated with AP alone) was “did not show a significant change” and the “change in serum UA concentration” value (Male Sprague-Dawley rats; rats treated with AP alone) was “did not show a significant change”. The serum uric acid (Male Sprague-Dawley rats; rats, 1 day) was 1.52 ± 0.3 mg/dL, the “Serum nitrites and nitrates (NOx)” value (Male Sprague-Dawley rats; rats, 1 day) was 17.4 ± 0.8 µmol/L and the serum uric acid (Male Sprague-Dawley rats; rats, 7 days) was 0.3 ± 0.2 mg/dL. For the same compound, the “Serum nitrites and nitrates (NOx)” value (Male Sprague-Dawley rats; rats, 7 days) was 25.0 ± 0.8 µmol/L, the “PGC, in words” value ([2]; AP with oxonic acid, in the presence of systemic hypertension) was “normal and significantly lower than RK hyperuricemic rats” and the “SNGFR (single-nephron GFR)” value [2, 7] was 53 nL/min. For the same compound, the “AA M/L (afferent arteriole media to lumen ratio)” value [3] was 1.8, the “effect on SBP” value ([4]; concomitant with oxonic acid) was “only a marginal effect” and the effect on hyperuricemia ([4]; concomitant with oxonic acid) was “prevented”. For the same compound, the effect on proteinuria ([4]; concomitant with oxonic acid) was “prevented”, the “effect on the hypertension induced by oxonic acid” value ([5]; concurrent with oxonic acid) was “prevented” and the “effect on the increase of serum uric acid induced by oxonic acid” value ([5]; concurrent with oxonic acid) was “prevented”. The “effect on thickening of afferent arterioles” value ([6]; with oxonic acid) was “prevented”.

In the case of `O=C(O)c1nc(=O)[nH]c(=O)[nH]1` [OA, oxonic acid], the afferent resistance higher ([1]; hyperuricemic vs control) is reported as 45%, the “decrease of SNGFR” value ([1]; hyperuricemic vs control) is reported as 35% and the efferent resistance higher ([1]; hyperuricemic vs control) is reported as 64%. For the same compound, the GFR [1, 8] was 0.71 ± 0.1 mL/min, the “KF (ultrafiltration coefficient)” value [1, 8] was 0.027 ± 0.002 nl/s/mmHg and the “MAP (mean arterial pressure)” value [1, 8] was 131 ± 4 mmHg. For the same compound, the “PGC (glomerular capillary hydrostatic pressure)” value [1, 8] was 56 ± 2 mmHg, the “QA (single-nephron plasma flow)” value [1, 8] was 66.1 ± 7.2 nL/min and the “RA (afferent resistance)” value [1, 8] was 4.82 ± 0.67 dyn/s/cm^−5. The “RE (efferent resistance)” value [1, 8] was 2.83 ± 0.19 dyn/s/cm^−5, the “SNGFR (single-nephron GFR)” value [1, 8] was 17.8 ± 2 nL/min and the “reduction of serum NOx vs control” value (Male Sprague-Dawley rats; hyperuricemic rats at both 1 day and 7 days) was 40-50%. The serum uric acid (Male Sprague-Dawley rats; rats, 1 day) was 1.7 ± 0.7 mg/dL, the “Serum nitrites and nitrates (NOx)” value (Male Sprague-Dawley rats; rats, 1 day) was 15.6 ± 0.4 µmol/L and the serum uric acid (Male Sprague-Dawley rats; rats, 7 days) was 1.8 ± 0.4 mg/dL. The “Serum nitrites and nitrates (NOx)” value (Male Sprague-Dawley rats; rats, 7 days) was 14.6 ± 1.1 µmol/L, the systolic blood pressure (Male Sprague-Dawley rats; rats, 7 days, tail cuff) was 178±18 mm Hg and the “Kf lower than RK control group” value [2] was 50%. The “SNGFR lower than RK control group” value [2] was 40%, the “afferent resistance higher compared to RK control” value [2] was 120% and the “efferent resistance higher compared to RK control” value [2] was 80%. The “glomerular plasma flow lower than RK control group” value [2] was 40%, the GFR [2, 7] was 0.4 ± 0.1 mL/min and the “KF (ultrafiltration coefficient)” value [2, 7] was 0.02 nl/s/mmHg and 0.024 ± 0.003 nl/s/mmHg. The “MAP (mean arterial pressure)” value [2, 7] was 184 ± 6 mmHg, the “PGC (glomerular capillary pressure)” value [2, 7] was 62 mmHg and 62 ± 1 mmHg and the “QA (glomerular plasma flow)” value [2, 7] was 147 nL/min and 146.5 ± 20.4 nL/min. The “RA (afferent resistance)” value [2, 7] was 4.6 dyn/s/cm^−5 and 4.55 ± 0.66 dyn/s/cm^−5, the “RE (efferent resistance)” value [2, 7] was 1.8 dyn/s/cm^−5 and 1.83 ± 022 dyn/s/cm^−5 and the “SNGFR (single-nephron GFR)” value [2, 7] was 40.6 nL/min and 40.7 ± 6.0 nL/min. The Glomerulosclerosis ([3]; Masson's trichrome) was 0.33 ± 0.07%, the “TI Fibrosis” value ([3]; Masson's trichrome) was 780.2 ± 55.0 arbitrary units and the “TI CD5 + (tubulointerstitial infiltration of CD5 positive cells)” value ([3]; immunoperoxidase) was 26.1 cells/mm^2 and 26.1 ± 2.99 cells/mm^2. The “AA M/L (afferent arteriole media to lumen ratio)” value [3] was 6.4 ± 0.37, the “AA M/L (afferent arteriole media to lumen ratio)” value ([3]; listed as Oxonic acid) was 6.4 and the “Uprot (proteinuria)” value ([4]; 25-28 days, mean±SE) was 246 ± 29 mg/day. The “SUA (serum uric acid)” value ([4]; OA 750 mg/kg gavage, AP 150 mg/L drinking water, 25-28 days, mean±SE) was 4.5 ± 0.4 mg/dL, the “SBP (systolic blood pressure)” value ([4]; tail cuff, 25-28 days, mean±SE) was 191 ± 10 mmHg and the “additional rise of proteinuria” value ([4]; vs RK control) was “two fold”. For the same compound, the “further increase of SBP” value ([4]; vs RK control) was 30 mmHg, the “increase of serum uric acid” value ([4]; vs RK control) was “two fold” and the “SUA (serum uric acid)” value ([5]; normal salt diet, OA 750 mg/kg gavage, AP 150 mg/L drinking water, 30-33 days, mean±SE) was 5.4 ± 0.2 mg/dL. The “SBP (systolic blood pressure)” value ([5]; normal salt diet, tail cuff, 30-33 days, mean±SE) was 134 ± 3 mmHg, the “increment of serum uric acid” value ([5]; vs control) was “two-fold” and the “AA M/L (afferent arteriole media/lumen ratio)” value ([6]; after micropuncture, mean±SE) was 5.1 ± 0.6.
